Assay results taken from patent US9067934B2, “Bicyclic pyridinones” (Pfizer Inc., priority 2011, dated 2015).
pIC50: −log10 of the molar value. Counter-ions that a name gives are not always drawn.

Test system: production of amyloid beta protein Aβ(1-42) (γ-secretase) in human WT-APP overexpressing CHO cells
Assay: Cell-Based γ-Secretase Assay with ELISA Readout
Conditions: human WT-APP overexpressing CHO cells, ~24 hours at 37° C., Aβ(1-42) ELISA; footnotes: a = geometric mean of >15 determinations, b = single determination, c = geometric mean of 7-15 determinations; read-out: Aβ 42B IC50 (Geometric Mean of 2-6 Determinations)
How it was run: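 Human WT-APP-overexpressing CHO cells were pre-cultured 24 h at 37° C, then exposed to compounds (eleven-point half-log series, 1% final DMSO) for ~24 h. Aβ(1-42) in conditioned media was captured with Aβ(1-42)-specific antibody and detected with Eu-labeled 6e10 by DELFIA TRF. IC50 by nonlinear regression against min/max inhibition controls.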

Structure (SMILES)	pIC50
Cc1cn(-c2ccc3n(c2=O)CCN(C(C)COc2ccc(F)cc2C(F)(F)F)C3=O)cn1 (centres unmarked) [Example 55, 2-{2-[4-fluoro-2-(trifluoromethyl)phenoxy]-1-methylethyl}-7-(4-methyl-1H-imidazol-1-yl)-3,4-dihydro-2H-pyrido[1,2-a]pyrazine-1,6-dione, formate salt]	6.77
Cc1cn(-c2ccc3n(c2=O)CCN(CCOc2ccc(F)cc2-n2ccc(C(F)(F)F)n2)C3=O)cn1 [Example 85, 2-(2-{4-fluoro-2-[3-(trifluoromethyl)-1H-pyrazol-1-yl]phenoxy}ethyl)-7-(4-methyl-1H-imidazol-1-yl)-3,4-dihydro-2H-pyrido[1,2-a]pyrazine-1,6-dione]	6.97
Cc1cn(-c2ccc3n(c2=O)CCN(CCOc2cccc(-c4ccccc4)c2)C3=O)cn1 [Example 18, 2-[2-(biphenyl-3-yloxy)ethyl]-7-(4-methyl-1H-imidazol-1-yl)-3,4-dihydro-2H-pyrido[1,2-a]pyrazine-1,6-dione]	6.82
Cc1cn(-c2ccc3n(c2=O)CCN([C@@H](C)COc2ccc(Cl)cc2C(F)(F)F)C3=O)cn1 [Example 107, 2-{(2S)-1-[4-chloro-2-(trifluoromethyl)phenoxy]propan-2-yl}-7-(4-methyl-1H-imidazol-1-yl)-3,4-dihydro-2H-pyrido[1,2-a]pyrazine-1,6-dione]	7.46
Cc1cn(-c2ccc3n(c2=O)CCN(CCOc2ccc(Cl)c4c2CCC4)C3=O)cn1 [Example 9, 2-{2-[(7-chloro-2,3-dihydro-1H-inden-4-yl)oxy]ethyl}-7-(4-methyl-1H-imidazol-1-yl)-3,4-dihydro-2H-pyrido[1,2-a]pyrazine-1,6-dione]	7.08
Cc1cn(-c2ccc3n(c2=O)CCN(CCOc2ccccc2-c2csc(C)n2)C3=O)cn1 [Example 36, 7-(4-methyl-1H-imidazol-1-yl)-2-{2-[2-(2-methyl-1,3-thiazol-4-yl)phenoxy]ethyl}-3,4-dihydro-2H-pyrido[1,2-a]pyrazine-1,6-dione, trifluoroacetate salt]	6.52
Cc1cn(-c2ccc3n(c2=O)CCN(C(C)C(C)Oc2ccccc2S(F)(F)(F)(F)F)C3=O)cn1 (single isomer, unassigned) [Example 126, 7-(4-methyl-1H-imidazol-1-yl)-2-{3-[2-(pentafluoro-λ^6-sulfanyl)phenoxy]butan-2-yl}-3,4-dihydro-2H-pyrido[1,2-a]pyrazine-1,6-dione]	7.70
Cc1cn(-c2ccc3n(c2=O)CCN(CCOc2cccc4[nH]c(C(F)(F)F)cc24)C3=O)cn1 [Example 101, 7-(4-methyl-1H-imidazol-1-yl)-2-(2-{[2-(trifluoromethyl)-1H-indol-4-yl]oxy}ethyl)-3,4-dihydro-2H-pyrido[1,2-a]pyrazine-1,6-dione]	6.34
Cc1cn(-c2ccc3n(c2=O)CCN(CCOc2cccc4c2cc(C(F)(F)F)n4C)C3=O)cn1 [Example 102, 7-(4-methyl-1H-imidazol-1-yl)-2-(2-{[1-methyl-2-(trifluoromethyl)-1H-indol-4-yl]oxy}ethyl)-3,4-dihydro-2H-pyrido[1,2-a]pyrazine-1,6-dione]	7.47
Cc1cccc(-c2ccccc2OCCN2CCn3c(ccc(-n4cnc(C)c4)c3=O)C2=O)c1 [Example 95, 2-{2-[(3′-methylbiphenyl-2-yl)oxy]ethyl}-7-(4-methyl-1H-imidazol-1-yl)-3,4-dihydro-2H-pyrido[1,2-a]pyrazine-1,6-dione, formate salt]	6.84
COc1cccc2c(OCCN3CCn4c(ccc(-n5cnc(C)c5)c4=O)C3=O)cccc12 [Example 60, 2-{2-[(5-methoxy-1-naphthyl)oxy]ethyl}-7-(4-methyl-1H-imidazol-1-yl)-3,4-dihydro-2H-pyrido[1,2-a]pyrazine-1,6-dione, trifluoroacetate salt]	7.48
Cc1cn(-c2ccc3n(c2=O)CCN(CCOc2ccc(Cl)cc2C(C)(C)O)C3=O)cn1 [Example 44, 2-{2-[4-chloro-2-(1-hydroxy-1-methylethyl)phenoxy]ethyl}-7-(4-methyl-1H-imidazol-1-yl)-3,4-dihydro-2H-pyrido[1,2-a]pyrazine-1,6-dione, trifluoroacetate salt]	6.85
Cc1cn(-c2ccc3n(c2=O)CCN(CCCOc2ccccc2C(C)(C)C)C3=O)cn1 [Example 32, 2-[3-(2-tert-butylphenoxy)propyl]-7-(4-methyl-1H-imidazol-1-yl)-3,4-dihydro-2H-pyrido[1,2-a]pyrazine-1,6-dione, trifluoroacetate salt]	6.84
Cc1cn(-c2ccc3n(c2=O)CCN(CCOc2cc(C(F)(F)F)nc4cc(Cl)ccc24)C3=O)cn1 [Example 84, 2-(2-{[7-chloro-2-(trrfluoromethyl)quinolin-4-yl]oxy}ethyl)-7-(4-methyl-1H-imidazol-1-yl)-3,4-dihydro-2H-pyrido[1,2-a]pyrazine-1,6-dione]	7.15
Cc1cn(-c2ccc3n(c2=O)CCN(CCOc2ccccc2-c2csc(C(F)(F)F)n2)C3=O)cn1 [Example 40, 7-(4-methyl-1H-imidazol-1-yl)-2-(2-{2-[2-(trifluoromethyl)-1,3-thiazol-4-yl]phenoxy}ethyl)-3,4-dihydro-2H-pyrido[1,2-a]pyrazine-1,6-dione]	7.71
Cc1cn(-c2ccc3n(c2=O)CCN(CCOc2ccc(C(F)(F)F)cc2C(F)(F)F)C3=O)cn1 [Example 29, 2-{2-[2,4-bis(trifluoromethyl)phenoxy]ethyl}-7-(4-methyl-1H-imidazol-1-yl)-3,4-dihydro-2H-pyrido[1,2-a]pyrazine-1,6-dione]	6.81
Cc1cn(-c2ccc3n(c2=O)CCN(CCOc2cccc4cc(F)c(F)cc24)C3=O)cn1 [Example 96, 2-{2-[(6,7-difluoronaphthalen-1-yl)oxy]ethyl}-7-(4-methyl-1H-imidazol-1-yl)-3,4-dihydro-2H-pyrido[1,2-a]pyrazine-1,6-dione, trifluoroacetate salt]	7.32
Cc1cn(-c2ccc3n(c2=O)CCN(CC(C)(C)Oc2cccc(Cl)c2Cl)C3=O)cn1 [Example 4, 2-[2-(2,3-dichlorophenoxy)-2-methylpropyl]-7-(4-methyl-1H-imidazol-1-yl)-3,4-dihydro-2H-pyrido[1,2-a]pyrazine-1,6-dione]	6.84
Cc1cn(-c2ccc3n(c2=O)CCN(CCOc2cccc4c2oc2ccccc24)C3=O)cn1 [Example 26, 2-[2-(dibenzo[b,d]furan-4-yloxy)ethyl]-7-(4-methyl-1H-imidazol-1-yl)-3,4-dihydro-2H-pyrido[1,2-a]pyrazine-1,6-dione]	7.02
Cc1cn(-c2ccc3n(c2=O)CCN(CCOc2ccnc4ccc(C(F)(F)F)cc24)C3=O)cn1 [Example 69, 7-(4-methyl-1H-imidazol-1-yl)-2-(2-{[6-(trtfluoromethyl)quinolin-4-yl]oxy}ethyl)-3,4-dihydro-2H-pyrido[1,2-a]pyrazine-1,6-dione]	7.23
Cc1cn(-c2ccc3n(c2=O)CCN(CCOc2ccc(F)c4nc(C(F)(F)F)sc24)C3=O)cn1 [Example 73, 2-(2-{[4-fluoro-2-(trifluoromethyl)-1,3-benzothiazol-7-yl]oxy}ethyl)-7-(4-methyl-1H-imidazol-1-yl)-3,4-dihydro-2H-pyrido[1,2-a]pyrazine-1,6-dione]	7.36
Cc1cn(-c2ccc3n(c2=O)CCN(CCOc2ccc(F)c(Cl)c2C(F)(F)F)C3=O)cn1 [Example 67, 2-{2-[3-chloro-4-fluoro-2-(trifluoromethyl)phenoxy]ethyl}-7-(4-methyl-1H-imidazol-1-yl)-3,4-dihydro-2H-pyrido[1,2-a]pyrazine-1,6-dione]	7.23
Cc1cn(-c2ccc3n(c2=O)CCN(CCOc2ccc(Cl)cc2-c2ccon2)C3=O)cn1 [Example 43, 2-[2-(4-chloro-2-isoxazol-3-ylphenoxy)ethyl]-7-(4-methyl-1H-imidazol-1-yl)-3,4-dihydro-2H-pyrido[1,2-a]pyrazine-1,6-dione, trifluoroacetate salt]	6.55
Cc1cn(-c2ccc3n(c2=O)CCN(CCOc2cccc4nc(C(F)(F)F)sc24)C3=O)cn1 [Example 97, 7-(4-methyl-1H-imidazol-1-yl)-2-(2-{[2-(trifluoromethyl)-1,3-benzothiazol-7-yl]oxy}ethyl)-3,4-dihydro-2H-pyrido[1,2-a]pyrazine-1,6-dione, trifluoroacetate salt]	7.67
Cc1ccc(OCCN2CCn3c(ccc(-n4cnc(C)c4)c3=O)C2=O)c(Cl)c1 [Example 17, 2-[2-(2-chloro-4-methylphenoxy)ethyl]-7-(4-methyl-1H-imidazol-1-yl)-3,4-dihydro-2H-pyrido[1,2-a]pyrazine-1,6-dione]	6.82
Cc1cn(-c2ccc3n(c2=O)CCN(CCOc2ccc(F)c4occc24)C3=O)cn1 [Example 11, 2-{2-[(7-fluoro-1-benzofuran-4-yl)oxy]ethyl}-7-(4-methyl-1H-imidazol-1-yl)-3,4-dihydro-2H-pyrido[1,2-a]pyrazine-1,6-dione]	6.27
Cc1cn(-c2ccc3n(c2=O)CCN(CCOc2ccccc2-c2ccc(Cl)cc2)C3=O)cn1 [Example 94, 2-{2-[(4′-chlorobiphenyl-2-yl)oxy]ethyl}-7-(4-methyl-1H-imidazol-1-yl)-3,4-dihydro-2H-pyrido[1,2-a]pyrazine-1,6-dione, formate salt]	6.97
O=C1c2ccc(-n3cnc(Cl)c3)c(=O)n2CCN1CCOc1ccc(Cl)cc1C(F)(F)F [Example 113, 7-(4-chloro-1H-imidazol-1-yl)-2-{2-[4-chloro-2-(trifluoromethyl)phenoxy]ethyl}-3,4-dihydro-2H-pyrido[1,2-a]pyrazine-1,6-dione]	6.53
Cc1cc(-c2ccc3n(c2=O)CCN(CCOc2cccc4ccc(F)cc24)C3=O)ccn1 [Example 115, 2-{2-[(7-fluoronaphthalen-1-yl)oxy]ethyl}-7-(2-methylpyridin-4-yl)-3,4-dihydro-2H-pyrido[1,2-a]pyrazine-1,6-dione]	6.31
